Test results published in paper PMC6265302, “Widespread bacterial lysine degradation proceeding via glutarate and L-2-hydroxyglutarate” (Nature Communications, 2018).

Tests used:
CsiD = biological target: T1, CsiD (Escherichia coli, UniProt P76621); test: CsiD activity assay, product inhibition; format: biochemical; details: reaction product
T1 construct: gene glaH; full ORF, N-terminal 6xHis tag (pET28a), expressed in E. coli BL21(DE3); Fe(II); homotetramer
T1 sequence (P76621 1-325): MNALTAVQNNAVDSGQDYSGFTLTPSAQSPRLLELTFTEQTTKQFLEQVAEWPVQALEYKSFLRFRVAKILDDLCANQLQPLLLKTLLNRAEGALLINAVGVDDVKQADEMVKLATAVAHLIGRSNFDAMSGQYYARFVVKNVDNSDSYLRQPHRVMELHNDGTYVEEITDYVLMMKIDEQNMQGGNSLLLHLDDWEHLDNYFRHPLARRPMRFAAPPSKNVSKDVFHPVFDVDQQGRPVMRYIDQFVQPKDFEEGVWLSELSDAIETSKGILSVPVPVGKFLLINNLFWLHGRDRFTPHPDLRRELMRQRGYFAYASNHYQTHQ

CsiR = biological target: T2, CsiR (Escherichia coli, UniProt P37338); test: filter binding assay with […]-labelled csiD promoter DNA; details: 1 mM ligand, Tris-HCl pH 7.6, 5 mM MgCl2; allosteric relief of DNA binding
T2 construct: gene glaR; full ORF, N-terminal 6xHis tag (pET28a), expressed in E. coli BL21(DE3)
T2 sequence (P37338 1-220): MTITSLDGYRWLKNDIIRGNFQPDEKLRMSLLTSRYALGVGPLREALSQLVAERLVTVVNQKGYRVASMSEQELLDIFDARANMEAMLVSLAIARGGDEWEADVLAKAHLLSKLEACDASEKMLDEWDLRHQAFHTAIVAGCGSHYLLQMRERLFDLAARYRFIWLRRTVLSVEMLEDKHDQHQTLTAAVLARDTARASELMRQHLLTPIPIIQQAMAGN

Structure (SMILES) | weak inhibition (CsiD) | reduced DNA binding at 1 mM (CsiR)
O=C(O)CC[C@H](O)C(=O)O [L-2-hydroxyglutarate] | We did observe weak inhibition of CsiD by its product L2HG | –
O=C(O)CCCC(=O)O [glutarate] | – | repressive effect at the csiD promoter site is specifically relieved upon GA binding
